These results are taken from patent US20240173435A1, “GENE DELIVERY FOR PREVENTION AND TREATMENT OF BALDNESS” (NEW JERSEY INSTITUTE OF TECHNOLOGY, priority 2022, published 2024).

Data set [1] can be described thus: Ionizable cationic lipid library screening, in vitro delivery of luciferase mRNA (mLuc). It is filed as cell-based. The note with it: 18*8 library, lipid:DOPE:cholesterol:DMG-PEG 50:10:38.5:1.5. An excerpt: An ionizable cationic lipid is generally composed of three parts: (1) hydrophilic headgroups containing one or multiple ionizable amines for condensing negatively charged mRNA; (2) hydrophobic hydrocarbon chains capable of promoting self-assembly and phospholipid membrane fusion; (3) degradable ester linkers connecting the headgroups with hydrocarbon chains to potentially lower systemic cytotoxicity (FIG. 8b). A new library of ionizable cationic lipids is designed, where the ionizable amine headgroups originated from different amino alcohols and the hydrocarbon lipid chains were derived from commercially available lipid acids. Through CALB enzyme-assisted reaction, the hydroxyl groups were reacted with carboxylic acids via one-step high-efficiency esterification (FIG. 8a) and an 18*8 library of lipid-like materials was synthesized by varying amino alcohols and lipid acids (ACS Nano, 16 (11) 18936-18950). Preliminarily, these lipid-like materials with DOPE, cholesterol, and DMG-PEG were fabricated at a molar ratio of 50:10:38.5:1.5, which was the most widely used formulation to form LNPs and delivered luciferase encoded mRNA (mLuc) in vitro to generate a luciferase expression heat map of lipid-like materials.

For another data set, the system named is Androgen Receptor gene. As to the kind of experiment: Knockout percentage by Sanger sequencing and ICE analysis of GFP-positive sorted cells. It is filed as cell-based, human. The note with it: GFP-positive sorted HEK 293T cells, ICE analysis, n=5. On the procedure:
Cas9 mRNA was purchased from Tri-Link Biotechnologies. Guide RNAs, which target the 1st coding exon in both human and mouse AR genes, were designed so that any frameshift mutation would result in early termination of translation. All gRNAs were obtained from Synthego with “end-modified” synthesis where the first and last three bases of these gRNA were synthesized using 2′-O-Methyl-nucleosides and joined via 3′ phosphorothioate bonds.
The in vitro transfection efficacy was evaluated in the HEK 293 cell line by delivering plasmid PX458 integrated with GFP, Cas9 and gRNA sequence, utilizing nanoparticles. Briefly, 1×10^5 HEK 293 cells were seeded into each well of 24-well plate with 0.5 mL complete culture medium and incubated at 37° C. overnight to allow cell attachment. Then the LNPs were seeded at 24 h. The transfected GFP positive cells were observed under All-in-One Fluorescence Microscope (BZ-X710, Keyence, Japan) at predetermined time points with brightfield, fluorescent and merged channels using 10×PanFluor lens (Nikon, Japan). […] The cell pellets were resuspended in 0.5 mL PBS for flow cytometric analysis using a BD LSR II flow cytometer (BD Biosciences, San Jose, CA) and the data were analyzed using FACSDiva software (BD Biosciences, San Jose, CA). […]

In the case of `CCCCC/C=C/C/C=C/CCCCCCCC(=O)OCCN1CCN(CCOC(=O)CCCCCCC/C=C/C/C=C/CCCCC)CC1` [AA3-DLin], in data set [1], the “luciferase expression rank in lipid library screen” value is “top-performing”. With “GAGCGTGCGCGAAGCGATCC (guide GAGCGUGCGCGAAGCGAUCC; listed as RNA, chemistry not fully specified) [sgRNA2, PAM AGG, strand +]”, the “knockout (percentage of transfected cells showing insertion or deletion)” value in the data set with Androgen Receptor gene is recorded as roughly 51%. Still for that read-out and setting: next, “TGATCCAGAACCCGGGCCCC (guide UGAUCCAGAACCCGGGCCCC; listed as RNA, chemistry not fully specified) [sgRNA1, PAM AGG, strand +]”: roughly 76%.
